{"source": "patent US4080466A", "about": "“Pharmaceutical compositions containing 4-hydroxyl-1,3-dithiolan-2-ylidene malonates” (Nihon Nohyaku Co., Ltd., priority 1976, dated 1978)", "key": {"[1]": {"system": "excretion of biliary salt", "experiment": "Cholagogic Action: effect on the excretion of biliary salt", "type": "in vivo, rats (SD-JCL strain)", "settings": "200 mg/kg oral; for Excretion of biliary salt: before treatment = 100; for Amount of total excreted biliary salts relative to control: 5 hours after administration", "protocol": "(§1) Drugs as choleresis are used for patients to improve bile flow. In the present example, the effect of the compound of the invention on the quantities of bile and biliary salt is investigated. Methods:\n(§2) The male rats (4 week-aged, SD-JCL strain) were anesthetized with sodium pentobarbital (37.5 mg/kg, intraperitoneal injection). The abdominal cavity was opened through a midline incision. The common bile duct was catheterized with polyethylene tube o.d. 0.8 mm. The catheter was brought to the outside through the abdominal incision would prior to closing. Bile was collected from the catheter continuously with time intervals of one hour. The quantity of bile produced in one hour was determined by weighing and that of biliary salt was determined by enzymatic method (Ikagaku Jikkenho Koza 1B, Biological Constituents II, edited by Tamio YAMAKAWA). The amount of biliary salt was represented in the term of cholic acid equivalent.\n(§3) In the representation of the results, the quantities of bile and biliary salt produced in one hour prior to the administration of drug were taken as 100. The compound of this invention was orally administered at the dose of 200 mg/kg. As reference, anethol trithion was used."}, "[2]": {"system": "fatty liver induced by carbon tetrachloride", "experiment": "Therapeutic Effect on Fatty Liver (carbon tetrachloride)", "type": "in vivo, rats (SD strain)", "settings": "10 days; for Degree of fatty liver (histopathological examination): one symbol per animal", "protocol": "Methods: […] The treated animals were left for 3 days after the last administration to maximize the manifestation of fatty liver. […] It was orally given everyday for 10 days at the dose of 50 or 250 mg/kg. On the 11th day, the animals were sacrificed. The therapeutic effect was evaluated by determining the content of liquid in the liver (triglyceride and total lipid) and examining the histopathological changes. Triglyceride and total lipid were determined colorimetrically by chromotropic acid method and Bragdon's oxidation method, respectively. Indices for the histopathological change is as follows: […]"}, "[3]": {"system": "alcohol metabolic function of liver", "experiment": "Effect on Concentration of Ethyl alcohol in the Blood", "type": "in vivo, mice", "settings": "250 mg/kg oral, 6 h before ethyl alcohol 1,000 mg/kg", "protocol": "After 6 hours, 1,000 mg/kg of ethyl alcohol was given orally. Blood was taken in a capillary from caudal vein at the time indicated in the results. The plasma was obtained by centrifugation. The concentration of ethyl alcohol in the plasma was measured by FID type gas liquid chromatography. Five mice were used for each group."}, "[4]": {"system": "fatty liver induced by ethionine", "experiment": "Effect on Fatty Liver (ethionine)", "type": "in vivo, mouse (dd-strain)", "settings": "250 mg/kg oral, 24 h, 10 animals", "source_text": "But, the fatty liver is grouped into a couple of patterns from the mechanism of lipid accumulation or metabolism of lipoprotein in the liver. Ethionine is a typical example which induces first pattern of fatty liver. It inhibits RNA and protein synthesis and destructs polysome of the liver cell. Fatty liver is induced by inhibition of the protein synthesis and disturbance of lipoprotein secretion.\nUsually, fatty liver is closely related to the accumulation of triglyceride in the liver. In the present example, the degree of fatty liver and protective or therapeutic effect against the fatty liver was evaluated by measurement of triglyceride content in the liver. Methods:\nThe compounds of this invention and methionine were independently dissolved or suspended into olive oil and administered orally to 4 week-old male mouse (dd-strain) at the dose of 250 mg/kg. One hour before it, simultaneously to it, or one hour after it, ethionine dissolved in equimolar NaOH solution was administered intraperitoneally at the dose of 200 mg/kg. Twenty four hours after the administration of ethionine, the animals were sacrificed and triglyceride content in the liver was determined by chromotropic acid method."}, "bile flow": {"system": "bile flow", "experiment": "Cholagogic Action: effect on bile flow", "type": "in vivo, rats (SD-JCL strain)", "settings": "200 mg/kg oral; for Bile flow: before treatment = 100; for Quantity of total excreted bile relative to control: 5 hours after administration", "protocol": "as §1, §2, §3"}, "[5]": {"system": "chronic liver damage induced by thioacetamide", "experiment": "Therapeutic Effect on Chronic Liver Damage (thioacetamide), BSP test", "type": "in vivo, rats (Spraque Dawley strain)", "settings": "normal diet + 0.2% of compound after 12 times TAA 100 mg/kg", "protocol": "In the tests of this Example, TAA was repeatedly administered to animals to prepare test animals suffering from somewhat chronic liver damages, and then the present compounds were administered thereto to know whether or not the compounds were effective against chronic hepatitis.\nThe degree of the liver damage and the therapeutic effects of the compounds were evaluated according to BSP test. The BSP test is a method in which BSP (sulfobromophthalein sodium), a dye known to be quickly metabolized in and excreted from the liver, is intravenously injected into animals and, after a definite period of time, the blood is taken out to measure the amount of BSP remaining in the plasma. In case the animals are suffering from the lever damage, the dye will remain, according to the degree of the damage, at the stage where a major portion of BSP metabolized and excreted in the case of normal animals.\nFive groups of rats (Spraque Dawley strain) were treated as follows:\nGroup A: The rats were orally administered with 100 mg/kg of thioacetamide,at 3 days intervals for 36 days (12 times of the administration), then were submitted for 10 days to a normal diet.\nGroup B: The rats were orally administered with 100 mg/kg of thioacetamide at 3 days intervals for 36 days (12 times of the administration), then were submitted for 10 days to the normal diet + 0.2% of compound 4.\nGroup C: The rats were orally administered with 100 mg/kg of thioacetamide at 3 days intervals for 36 days (12 times of the administration), then were submitted for 10 days to the normal diet + 0.2% of compound 2.\nGroup D: The rats were orally administered with 100 mg/kg of thioacetamide at 3 days intervals for 36 days (12 times of the administration), then were submitted for 10 days to the normal diet + 0.2% of anethol trithion.\nGroup E: The rats were submitted to the normal diet as the control.\nFive rats were sacrificed from each group at appropriate intervals for BSP (sulfobromophthalein) test, the results of which were shown as amounts (mg) of BSP remaining in 1 dl of plasma."}, "[6]": {"settings": "compound 1 hr before ethionine (200 mg/kg i.p.)"}, "[7]": {"settings": "simultaneous with ethionine (0 hr)"}}, "note": "Entries after “also recorded” stand apart in the source; their conditions may differ."}
{"smiles": "CC(C)OC(=O)C(C(=O)OC(C)C)=C1SCC(O)S1", "note": "(stereo not shown) [Compound 2, Diisopropyl 4-hydroxy-1,3-dithiolan-2-ylidene malonate]", "values": [{"measurement": "Excretion of biliary salt", "setting": "[1]; 1 hour after treatment", "value": "102 ± 7.3"}, {"measurement": "Excretion of biliary salt", "setting": "[1]; 2 hours after treatment", "value": "100 ± 5.8"}, {"measurement": "Excretion of biliary salt", "setting": "[1]; 3 hours after treatment", "value": "106 ± 7.9"}, {"measurement": "Excretion of biliary salt", "setting": "[1]; 4 hours after treatment", "value": "97 ± 7.2"}, {"measurement": "Amount of total excreted biliary salts relative to control", "setting": "[1]", "value": 1.43, "unit": "times"}, {"measurement": "Excretion of biliary salt", "setting": "[1]; 5 hours after treatment", "value": "90 ± 5.3"}, {"measurement": "Total lipid", "setting": "[2]; 50 mg/kg oral", "value": "82.3 ± 15.1", "unit": "mg/g-liver"}, {"measurement": "Triglyceride", "setting": "[2]; 50 mg/kg oral", "value": "38.6 ± 8.5", "unit": "mg/g-liver"}, {"measurement": "Degree of fatty liver (histopathological examination)", "setting": "[2]; 50 mg/kg oral", "value": "± ± + ± ± + ±"}, {"measurement": "Total lipid", "setting": "[2]; 250 mg/kg oral", "value": "68.3 ± 10.3", "unit": "mg/g-liver"}, {"measurement": "Triglyceride", "setting": "[2]; 250 mg/kg oral", "value": "21.6 ± 7.3", "unit": "mg/g-liver"}, {"measurement": "Degree of fatty liver (histopathological examination)", "setting": "[2]; 250 mg/kg oral", "value": "- - ± ± ± ± -"}, {"measurement": "Concentration of Ethyl alcohol in Plasma", "setting": "[3]; 0 min", "value": "10±7", "unit": "ppm"}, {"measurement": "Concentration of Ethyl alcohol in Plasma", "setting": "[3]; 5 min", "value": "711±95", "unit": "ppm"}, {"measurement": "Concentration of Ethyl alcohol in Plasma", "setting": "[3]; 15 min", "value": "558±104", "unit": "ppm"}, {"measurement": "Concentration of Ethyl alcohol in Plasma", "setting": "[3]; 30 min", "value": "426±96", "unit": "ppm"}, {"measurement": "Concentration of Ethyl alcohol in Plasma", "setting": "[3]; 60 min", "value": "13±6", "unit": "ppm"}, {"measurement": "Triglyceride", "setting": "[4]; compound 1 hr after ethionine", "value": "11.8 ± 0.39", "unit": "mg/g-liver"}, {"measurement": "Triglyceride", "setting": "[4]; [6]", "value": "10.3 ± 0.96", "unit": "mg/g-liver"}, {"measurement": "Triglyceride", "setting": "[4]; [7]", "value": "6.9 ± 0.38", "unit": "mg/g-liver"}, {"measurement": "Bile flow", "setting": "bile flow; 1 hour after treatment", "value": "112 ± 2.4"}, {"measurement": "Bile flow", "setting": "bile flow; 2 hours after treatment", "value": "117 ± 6.8"}, {"measurement": "Bile flow", "setting": "bile flow; 3 hours after treatment", "value": "101 ± 7.0"}, {"measurement": "Bile flow", "setting": "bile flow; 4 hours after treatment", "value": "97 ± 8.3"}, {"measurement": "Quantity of total excreted bile relative to control", "setting": "bile flow", "value": 1.13, "unit": "times"}, {"measurement": "Bile flow", "setting": "bile flow; 5 hours after treatment", "value": "80 ± 7.3"}, {"measurement": "BSP remaining in plasma", "setting": "[5]; 2 days", "value": "7.0 ± 2.8", "unit": "mg/dL"}, {"measurement": "BSP remaining in plasma", "setting": "[5]; 5 days", "value": "3.1 ± 0.7", "unit": "mg/dL"}, {"measurement": "BSP remaining in plasma", "setting": "[5]; 10 days", "value": "0.8 ± 0.2", "unit": "mg/dL"}]}
{"smiles": "CCOC(=O)C(C(=O)OC(C)C)=C1SCC(O)S1", "note": "(stereo not shown) [Compound 4, Ethyl isopropyl 4-hydroxy-1,3-dithiolan-2-ylidene malonate]", "values": [{"measurement": "Excretion of biliary salt", "setting": "[1]; 1 hour after treatment", "value": "100 ± 7.2"}, {"measurement": "Excretion of biliary salt", "setting": "[1]; 2 hours after treatment", "value": "106 ± 7.8"}, {"measurement": "Excretion of biliary salt", "setting": "[1]; 3 hours after treatment", "value": "98 ± 4.3"}, {"measurement": "Excretion of biliary salt", "setting": "[1]; 4 hours after treatment", "value": "90 ± 7.7"}, {"measurement": "Amount of total excreted biliary salts relative to control", "setting": "[1]", "value": 1.37, "unit": "times"}, {"measurement": "Excretion of biliary salt", "setting": "[1]; 5 hours after treatment", "value": "82 ± 6.8"}, {"measurement": "Total lipid", "setting": "[2]; 50 mg/kg oral", "value": "87.6 ± 7.2", "unit": "mg/g-liver"}, {"measurement": "Triglyceride", "setting": "[2]; 50 mg/kg oral", "value": "40.6 ± 8.2", "unit": "mg/g-liver"}, {"measurement": "Degree of fatty liver (histopathological examination)", "setting": "[2]; 50 mg/kg oral", "value": "+ + + ++; also recorded: ± ± + ± ± ± +"}, {"measurement": "Total lipid", "setting": "[2]; 250 mg/kg oral", "value": "70.3 ± 7.7", "unit": "mg/g-liver"}, {"measurement": "Triglyceride", "setting": "[2]; 250 mg/kg oral", "value": "25.3 ± 4.2", "unit": "mg/g-liver"}, {"measurement": "Degree of fatty liver (histopathological examination)", "setting": "[2]; 250 mg/kg oral", "value": "± ± ± - - - ±"}, {"measurement": "Concentration of Ethyl alcohol in Plasma", "setting": "[3]; 0 min", "value": "9±4", "unit": "ppm"}, {"measurement": "Concentration of Ethyl alcohol in Plasma", "setting": "[3]; 5 min", "value": "730±92", "unit": "ppm"}, {"measurement": "Concentration of Ethyl alcohol in Plasma", "setting": "[3]; 15 min", "value": "536±113", "unit": "ppm"}, {"measurement": "Concentration of Ethyl alcohol in Plasma", "setting": "[3]; 30 min", "value": "373±105", "unit": "ppm"}, {"measurement": "Concentration of Ethyl alcohol in Plasma", "setting": "[3]; 60 min", "value": "7±2", "unit": "ppm"}, {"measurement": "Triglyceride", "setting": "[4]; compound 1 hr after ethionine", "value": "12.8 ± 0.92", "unit": "mg/g-liver"}, {"measurement": "Triglyceride", "setting": "[4]; [6]", "value": "12.0 ± 0.77", "unit": "mg/g-liver"}, {"measurement": "Triglyceride", "setting": "[4]; [7]", "value": "6.7 ± 0.43", "unit": "mg/g-liver"}, {"measurement": "Bile flow", "setting": "bile flow; 1 hour after treatment", "value": "108 ± 2.1"}, {"measurement": "Bile flow", "setting": "bile flow; 2 hours after treatment", "value": "120 ± 7.7"}, {"measurement": "Bile flow", "setting": "bile flow; 3 hours after treatment", "value": "107 ± 6.8"}, {"measurement": "Bile flow", "setting": "bile flow; 4 hours after treatment", "value": "98 ± 7.2"}, {"measurement": "Quantity of total excreted bile relative to control", "setting": "bile flow", "value": 1.11, "unit": "times"}, {"measurement": "Bile flow", "setting": "bile flow; 5 hours after treatment", "value": "88 ± 5.3"}, {"measurement": "BSP remaining in plasma", "setting": "[5]; 2 days", "value": "7.2 ± 1.2", "unit": "mg/dL"}, {"measurement": "BSP remaining in plasma", "setting": "[5]; 5 days", "value": "3.6 ± 0.5", "unit": "mg/dL"}, {"measurement": "BSP remaining in plasma", "setting": "[5]; 10 days", "value": "0.3 ± 0.1", "unit": "mg/dL"}]}
